Measurements as given in patent US4888336A, “Steroid 5-alpha-reductase inhibitors” (SmithKline Beckman Corporation, priority 1987, dated 1989).
Like-named read-outs stand apart in the source and are kept apart here.

Key:
[1] = system: 5-alpha-reductase; experiment: Time course of in vivo 5-alpha-reductase inhibition: T and DHT in rat ventral prostate (Table IV); set-up: species or system rats; conditions: for DHT level / T level: ventral prostate, mean + SEM; for DHT level: ** P < .05; for T level: listed as name T not given
[2] = system: steroid 5-alpha-reductase; experiment: In vivo inhibition of steroid 5-alpha-reductase: T and DHT levels in rat ventral prostate, 6 hours after oral dosing (Table III); set-up: species or system Male Charles River CD rats; conditions: for DHT level / T level: ± SEM
[3] = molecular target: T1, human steroid 5-alpha-reductase (Homo sapiens, UniProt P31213); experiment: Inhibition of human prostatic steroid 5-alpha-reductase ([14C]-testosterone conversion, Dixon plot); format: biochemical
T1 construct: Prostatic particles were obtained by differential centrifugation; from tissue; host or cells: hyperplastic human prostate, washed 140,000×g particulate fraction
T1 sequence (P31213 1-254): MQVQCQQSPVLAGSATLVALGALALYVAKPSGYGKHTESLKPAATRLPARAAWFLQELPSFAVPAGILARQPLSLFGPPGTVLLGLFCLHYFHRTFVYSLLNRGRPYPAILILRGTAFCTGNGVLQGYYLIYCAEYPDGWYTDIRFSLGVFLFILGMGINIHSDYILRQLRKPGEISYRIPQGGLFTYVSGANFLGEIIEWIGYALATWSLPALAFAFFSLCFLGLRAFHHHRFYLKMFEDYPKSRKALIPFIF
Protocol: In determining potency in inhibiting the human enzyme, the following procedure was employed:
The tissue was homogenized in 3 to 5 volumes of 20 mM potassium phosphate, pH 6.5, buffer containing 0.33 M sucrose, 1 mM dithiothreitol, and 50 μM NADPH with a Brinkmann Polytron (Sybron Corporation, Westbury, N.Y.).
The resulting pellet was suspended in 20 mM potassium phosphate buffer, pH 6.5, containing 20% glycerol, 1 mM dithiothreitol, and 50 μM NADPH. The suspended particulate solution was stored at -80° C.
After incubating the solution at 37° C. for 20 to 30 minutes the reaction was quenched by the addition of 4 ml ethyl acetate and 0.25 μmol each of testosterone, dihydrotestosterone, androstanediol, and androstanedione as carriers. The organic layer was removed to a second test tube and evaporated to dryness in a Speed Vac. […] The radiochemical content in the bands of the substrate and the products was determined with a BIOSCAN Imaging Scanner (Bioscan, Inc., Washington, D.C.). The percent of recovered radiolabel converted to product was calculated, from which enzyme activity was determined. All incubations were conducted such that no more than 12% of the substrate (testosterone) was consumed.
The experimentally obtained data was computer fitted to a linear function by plotting the reciprocal of the enzyme activity (1/velocity) against the variable inhibitor concentration (Dixon, M. (1953), Biochem. J., 55, 170). Assuming that the steroidal inhibitor is a competitive inhibitor against testosterone, a value for the inhibition constant (Ki) can be calculated from equation 1: […]

[4] = system: Steroid 5-alpha-reductase; conditions: cited from earlier work; for Reversibility of inhibition: Table 1; for Inhibition of steroid 5-alpha-reductase, in words: literature description
[5] = read-out: K1 (5-alpha-Reductase Inhibitors)
[6] = human hyperplastic prostate particulate, pH 5.0, 37° C., read-out: Ki

**Q.** Which results are given for `CC(C)N(C(=O)[C@H]1CCC2=C3CC[C@H]4N(C)C(=O)CC[C@]4(C)[C@H]3CC[C@@]21C)C(C)C` [4-Methyl-4-aza-5-alpha-8(14)-androsten-3-one-17β-N,N-diisopropylcarboxamide]?
**A.** T/DHT ([1]; 1 Hour): 1.00; DHT level ([1]; 1 Hour): .532 ± .08 ng/100 mg tissue; T level ([1]; 1 Hour): .533 ± .15 ng/100 mg tissue; T/DHT ([1]; 2 Hours): .97; DHT level ([1]; 2 Hours): .496 ± .05 ng/100 mg tissue; T level ([1]; 2 Hours): .481 ± .12 ng/100 mg tissue; T/DHT ([1]; 4 Hours): 1.20; DHT level ([1]; 4 Hours): .504 ± .09 ng/100 mg tissue; T level ([1]; 4 Hours): .607 ± .24 ng/100 mg tissue; T/DHT ([1]; 8 Hours): 1.13; DHT level ([1]; 8 Hours): .498 ± .04 ng/100 mg tissue; T level ([1]; 8 Hours): .565 ± .16 ng/100 mg tissue; Difference in DHT levels compared to controls, in words ([1]; at 1, 2, 4, and 8 hours, P < .05): significant differences in DHT levels

**Q.** For `C[C@@H](C(=O)O)[C@H]1CCC2=C3CC[C@H]4N(C)C(=O)CC[C@]4(C)[C@H]3CC[C@@]21C` [4-Methyl-4-aza-5-alpha-8(14)-pregnen-3-one-(20R)-20-carboxylic acid], which T/DHT ([2]; 5 mg/kg oral) is on record?
**A.** The T/DHT was 0.79.

**Q.** What about the DHT level ([2]; 5 mg/kg oral) of the same molecule?
**A.** The DHT level was 0.43 ± .12 ng/100 mg ventral prostate tissue.

**Q.** And the T level ([2]; 5 mg/kg oral)?
**A.** Its T level is 0.34 ± .11 ng/100 mg ventral prostate tissue.

**Q.** What about the T/DHT ([2]; 10 mg/kg oral) of the same molecule?
**A.** The T/DHT was 0.76.

**Q.** And the DHT level ([2]; 10 mg/kg oral)?
**A.** The DHT level was 0.34 ± .09 ng/100 mg ventral prostate tissue.

**Q.** What about the T level ([2]; 10 mg/kg oral) of the same molecule?
**A.** Its T level is 0.26 ± .07 ng/100 mg ventral prostate tissue.

**Q.** And the T/DHT ([2]; 20 mg/kg oral)?
**A.** The T/DHT was 0.88.

**Q.** What about the DHT level ([2]; 20 mg/kg oral) of the same molecule?
**A.** Its DHT level is 0.34 ± .06 ng/100 mg ventral prostate tissue.

**Q.** What about the T level ([2]; 20 mg/kg oral) of the same molecule?
**A.** Its T level is 0.30 ± .04 ng/100 mg ventral prostate tissue.

**Q.** Which Ki [3] does the source give for `C[C@@H](CO)[C@H]1CCC2=C3CC[C@H]4N(C)C(=O)CC[C@]4(C)[C@H]3CC[C@@]21C` [(1)] here?
**A.** Its Ki is 450 ± 20 nM.

**Q.** With `C[C@]12CC[C@H]3[C@@H](CCC4=CC(=O)CC[C@@]43C)[C@@H]1CC[C@@H]2C(=O)O` [(1)] as the molecule, how does the Reversibility of inhibition [4] read?
**A.** The Reversibility of inhibition was “Reversible”.

**Q.** And the Ki [4, 5]?
**A.** The Ki was 1100 nM.

**Q.** Which results are given for `CC(=O)C1CCC2C3CC=C=CC(=O)CCC(=O)C3CCC12C` (stereo not shown) [(2)]?
**A.** Reversibility of inhibition [4]: Irreversible; Ki [4, 5]: 1000 nM

**Q.** For `C[C@@H](C(=O)O)[C@H]1CCC2=C3CC[C@H]4N(C)C(=O)CC[C@]4(C)[C@H]3CC[C@@]21C` [(2)], which Ki [3, 6] is on record?
**A.** The Ki was 100 ± 10 nM.

**Q.** Which Ki [3, 6] does the source give for `CC(C)N(C(=O)[C@H]1CCC2=C3CC[C@H]4N(C)C(=O)CC[C@]4(C)[C@H]3CC[C@@]21C)C(C)C` [(3)] here?
**A.** Its Ki is 8 ± 2 nM.

**Q.** What does the source list for `CC(CO)[C@H]1CC[C@H]2[C@@H]3CC[C@H]4C(=[N+]=[N-])C(=O)CC[C@]4(C)[C@H]3CC[C@]12C` (stereo partly shown) [(3)]?
**A.** Reversibility of inhibition [4]: Irreversible; Ki ([4]; line (3) printed without unit, read-out: K1 (5-alpha-Reductase Inhibitors), unit inferred): 35 nM; Inhibition of steroid 5-alpha-reductase, in words [4]: potent, time-dependent inhibitor

**Q.** What does the source list for `CCN(CC)C(=O)[C@H]1CC[C@H]2[C@@H]3CC[C@H]4N(C)C(=O)CC[C@]4(C)[C@H]3CC[C@]12C` [(4)]?
**A.** Reversibility of inhibition [4]: Reversible; Ki [4, 5]: 5 nM

**Q.** For `C=C1C[C@@H]2[C@H](CC[C@@]3(C)[C@H]2CC[C@]3(OC(C)=O)C(C)=O)[C@@]2(C)CCC(=O)C=C12` [(5)], which Reversibility of inhibition [4] is on record?
**A.** The Reversibility of inhibition was “Irreversible”.

**Q.** What about the “Inhibition of steroid 5-alpha-reductase, in words” value [4] of the same molecule?
**A.** The value was “time-dependent inactivator”.

**Q.** And the Ki [4, 5]?
**A.** The Ki was 1250 nM.

**Q.** For `C[C@@H](CO)[C@H]1CCC2=C3CC[C@H]4N(C)C(=O)CC[C@]4(C)[C@H]3CC[C@@]21C` [(20R)-Hydroxymethyl-4-methyl-4-aza-5-alpha-8(14)-pregnen-3-one], which T/DHT ([2]; 5 mg/kg oral) is on record?
**A.** Its T/DHT is 0.72.

**Q.** And the DHT level ([2]; 5 mg/kg oral)?
**A.** Its DHT level is 0.72 ± .21 ng/100 mg ventral prostate tissue.

**Q.** And the T level ([2]; 5 mg/kg oral)?
**A.** The T level was 0.52 ± .27 ng/100 mg ventral prostate tissue.

**Q.** And the T/DHT ([2]; 10 mg/kg oral)?
**A.** The T/DHT was 0.83.

**Q.** And the DHT level ([2]; 10 mg/kg oral)?
**A.** The DHT level was 0.53 ± .12 ng/100 mg ventral prostate tissue.

**Q.** What about the T level ([2]; 10 mg/kg oral) of the same molecule?
**A.** The T level was 0.44 ± .13 ng/100 mg ventral prostate tissue.

**Q.** And the T/DHT ([2]; 20 mg/kg oral)?
**A.** The T/DHT was 0.92.

**Q.** What about the DHT level ([2]; 20 mg/kg oral) of the same molecule?
**A.** The DHT level was 0.49 ± .14 ng/100 mg ventral prostate tissue.

**Q.** What about the T level ([2]; 20 mg/kg oral) of the same molecule?
**A.** The T level was 0.45 ± .12 ng/100 mg ventral prostate tissue.
